The test system of assay [1] is IL-17A/F. The assay is described as follows: Cytokine ELISA of lung protein extract (IL-17A/F). The assay is classed as in vivo, BALB/c mouse. Conditions: eIN+mIT, mIT+eIN and eIN+mIT+eIN groups. From the text: FIG. 4 illustrates experimental design. All groups except control group were immunized with mite crude extract allergen on days 1 and 8, then mite crude extract allergen intratracheally on day 15 in all mite treated group, BALB/c mouse were divided into six groups (1) control group (PBS), (2) mites delivered intratracheally (mIT, mite on day 15) alone, (3) CMP intranasal (eIN, CMP on days 1 to 22) alone, (4) preventive-treatment group (eIN+mIT, CMP on days 1 to 14, mite on day 15) (5) therapy-treatment group (mIT+eIN, mite on day 15, CMP on days 15 to 22), and (6) preventive- and therapeutic-treatment group (eIN+mIT+eIN, CMP on days 1 to 22, mite on day 15).
FIG. 9 illustrates inhibitory effect of CMP on lung protein extract. Lung protein extracts from different groups of mouse were assayed for the indicated cytokines. Data represent one of three independent experiments. Levels of CCL-11, IL-5, IL-13 and IL-17A/F levels in lung protein extracts from mouse from treatment groups were measured by Enzyme-linked immunosorbent assay (ELISA). Each result was expressed as the mean±S.D., n=4. **, P<0.01, ***, P<0.001. […]
Levels of cytokines from lung protein extract were measured by ELISA. […] The microplates were read at 450 nm with an ELISA reader (Thermo Labsystems, Waltham, Mass., USA). […]
A general note: An ELISA detects its analyte on a solid surface through an enzyme-linked reagent.

The subject of assay [2] is human lung cancer H460. Description: Transwell migration assay, H460. The following applies: 12.5 μM CMP pretreatment 30 min, 18 hours. It is filed as cell-based. As for the experimental part:
FIG. 10 illustrates Tumor migration inhibition by CMP. A549, H460 and mouse colon cancer cells were incubated with CMP at 37° C. for 30 min before adding to the top chamber of transwell membranes in 24-well dishes at a density of 2×10^4 cells/well. Data represented the mean±S.E. of triplicate samples from a representative experiment. The experiment was repeated at least three times with similar results
Cancer cell inhibition by CMP was performed in a 24-well Transwell chamber consisting of a cell culture insert (6.4 mm diameter, 8-1 μm pore polyethylene tetraphtalate membrane, [Becton Dickinson]) set in each well of a 24-well companion plate (Becton Dickinson). Briefly, 3×10^4 cancer cells were suspended and pretreated with 5 and 12.5 μM CMP for 30 min in a total volume of 200 μL. Cell suspensions were inoculated into the upper chamber of an insert, 5% fetal bovine serum (FBS) in medium as a chemoattractant was added to the plate well in the bottom chamber, and incubated for 18 hours in a humidified incubator at 37° C. with 5% CO2. The non-migratory cells on the upper membrane surface were removed with a cotton swab, and the migratory cells attached to the lower membrane surface were fixed with 4% paraformaldehyde and stained with 0.2% crystal violet. The number of migrated cells was counted in four randomly selected high power fields under microscope. […]

For the sequence NYRWRCKNQN (CMP), the “IL-17A/F levels in lung protein extract compared with mIT group” value in assay [1] is reported as “much lower”. For the same sequence, in assay [2], the “decrease of migration activity” value is 50%.

(Values after patent publication US9315544B2, “Method of treating eosinophilia by administering an immunomodulating peptide” (National Tsing Hua University, priority 2012, dated 2016).)
